From ChEMBL document CHEMBL1126235, “Benzothiadiazine dioxides: A new class of potent angiotensin-II (AT1) receptor antagonists” (Bioorg Med Chem Lett, 1992)

Assays:
Oryctolagus cuniculus = species: Oryctolagus cuniculus; assay: Compound was tested for functional antagonism of angiotensin-II induced contraction in isolated rabbit aorta
[1] = target: T1, Angiotensin II receptor (AT-1) type-1 (Rattus norvegicus, UniProt P29089+P25095); assay: Binding against Angiotensin II receptor in a radioligand binding assay using [125I]-Sar1-Ile8 angiotensin-II as radioligand in rat adrenal cortical membranes; type: cell membranes
T1 sequence (P29089 whole entry): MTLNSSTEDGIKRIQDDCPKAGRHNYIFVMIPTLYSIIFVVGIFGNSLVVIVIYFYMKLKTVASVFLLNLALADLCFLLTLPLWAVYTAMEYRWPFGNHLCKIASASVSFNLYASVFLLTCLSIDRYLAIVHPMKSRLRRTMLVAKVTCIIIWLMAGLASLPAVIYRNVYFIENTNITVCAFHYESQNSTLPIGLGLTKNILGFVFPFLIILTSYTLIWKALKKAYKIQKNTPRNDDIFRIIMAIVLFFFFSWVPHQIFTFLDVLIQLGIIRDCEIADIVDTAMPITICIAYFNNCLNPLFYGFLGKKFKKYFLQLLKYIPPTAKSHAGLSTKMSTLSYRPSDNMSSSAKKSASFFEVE
T1 sequence (P25095 whole entry): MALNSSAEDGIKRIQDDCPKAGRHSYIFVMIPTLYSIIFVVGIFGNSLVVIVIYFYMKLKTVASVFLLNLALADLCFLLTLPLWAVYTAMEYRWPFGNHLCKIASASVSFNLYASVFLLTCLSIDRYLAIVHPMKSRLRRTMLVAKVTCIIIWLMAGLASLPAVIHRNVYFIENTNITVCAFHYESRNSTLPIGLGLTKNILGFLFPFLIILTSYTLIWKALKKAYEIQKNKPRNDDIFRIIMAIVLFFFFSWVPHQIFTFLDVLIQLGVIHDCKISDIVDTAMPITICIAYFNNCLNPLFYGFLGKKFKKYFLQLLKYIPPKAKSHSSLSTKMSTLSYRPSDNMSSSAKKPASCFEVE

Row | Compound | Ki [1] [nM] | Kb (Oryctolagus cuniculus) [nM]
1 | CCCCC1=NS(=O)(=O)c2ccccc2N1Cc1ccc(-c2ccccc2C(=O)O)cc1 | 550 | 130
2 | CCCCC1=Nc2ccccc2S(=O)(=O)N1Cc1ccc(-c2ccccc2C(=O)O)cc1 | 230 | 160
3 | CCCSC1=NS(=O)(=O)c2ccccc2N1Cc1ccc(-c2ccccc2C(=O)O)cc1 | 180 | 20
4 | CCCSC1=Nc2ccccc2S(=O)(=O)N1Cc1ccc(-c2ccccc2C(=O)O)cc1 | 4900 | 1200
5 | CCCCc1nc(Cl)c(CO)n1Cc1ccc(-c2ccccc2-c2nnn[nH]2)cc1 [LOSARTAN] | – | 2.6

Further lines, with some results ahead:

Row | Ki [1] [nM] | Compound | Kb (Oryctolagus cuniculus) [nM]
6 | 0.8 | CCSC1=NS(=O)(=O)c2cc(C)cnc2N1Cc1ccc(-c2ccccc2-c2nn[nH]n2)cc1 | 0.6
7 | 0.6 | CCCSC1=NS(=O)(=O)c2cc(C)cnc2N1Cc1ccc(-c2ccccc2-c2nn[nH]n2)cc1 | 11
8 | 57 | CCCSC1=Nc2ccccc2S(=O)(=O)N1Cc1ccc(-c2ccccc2-c2nn[nH]n2)cc1 | 640
9 | 8.5 | CCCSC1=NS(=O)(=O)c2ccc(C(=O)O)cc2N1Cc1ccc(-c2ccccc2-c2nn[nH]n2)cc1 | 0.08
10 | 4.8 | CCCSC1=NS(=O)(=O)c2ccccc2N1Cc1ccc(-c2ccccc2-c2nn[nH]n2)cc1 | 93
